Laboratory results as given in patent publication US9145354B2, “Pharmaceutical compounds” (priority 2011, dated 2015).
pEC50, pIC50: −log10 of the molar value. Where two headings read alike, the source gives them in different places.

How the values were obtained:
[1] = molecular target: full length NS3/4a (Hepatitis C virus genotype 1b (isolate BK) (HCV), UniProt P26663); test: NS3 Protease Assay (Example A), FRET-based; type: biochemical; details: for IC50: HCV NS3 protease assay, full length NS3/4a, read-out: Assay A IC50 (μM) average; for pIC50: read-out: IC50 against the protease activity of the full length NS3/4a
How it was run: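 Initial rates were taken from fluorescence progress curves over 30 min at room temperature, and IC50 was fitted across replicates. In-house full-length NS3/4a cleaved a FRET peptide (5-FAMsp/QXL520) from the NS4A/B site. Medium: 50 mM Tris pH8, 20 mM DTT, 1% CHAPS, 10% glycerol, 5% DMSO.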

[2] = tested on: HCV subgenomic replicon in Huh-7 cells; test: Replicon Assay (Example B), luciferase readout EC50; type: cell-based; details: Hepatitis C virus, Huh-7, replicon assay, luciferase readout; upper value of the cell pair; read-out: Assay B EC50
How it was run: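 Huh-7 cells carrying a luciferase-neo HCV subgenomic replicon (NS3–NS5b) were treated with semilog compound dilutions (0.1% DMSO final), in triplicate, for 72 h at 37° C. EC50 came from Bright-Glo luciferase signal as a proxy for replicon RNA; viability was read by Alamar blue.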

[3] = Replicon Assay (Example B), Alamar Blue cytotoxicity CC50; type: cell-based; details: human, lower value of the cell pair
Excerpt: Thus, Huh-7 cells persistently infected with an HCV-RNA construct (Bartenschlager, R. Hepatitis C replicons: potential role for drug development. Nature Rev. Drug Discov. 1, 911-916 (2002)) comprising: 5′ and 3′ non-translated regions (NTR); the non-structural genes NS3 to NS5b; as well as the G418 drug resistance gene, neomycin, (for selection of cells carrying HCV replicon RNA) fused to the firefly Luciferase reporter gene (pFKI3889Iuc-ubi-neo/NS3-3′/ET) were used to determine the cell based antiviral activity of compounds using luciferase activity as an indirect readout of HCV RNA load. In this assay […] huh-7 cells persistently infected with the HCV subgenomic replicon construct above were plated/well in a 96 well tissue culture plate. The cells were allowed to attach overnight in DMEM medium supplemented with 10% FBS 1% NEAA, and 250 μg/ml gentamicin. The following day the medium was replaced with 200 μl/well of fresh medium as described above lacking gentamicin. Semilog dilutions of compounds in medium were then added to triplicate wells (non-edge) of the cultured cells to give a 0.1% DMSO final concentration. Plates were then incubated at 37° C. in an atmosphere of 5% CO2 and air for 72 h. […] The plate was then read at 535 nm (excitation) and 590 nm (emission) on a SpectraMax Gemini reader (Molecular Devices) to determine the number of viable cells by measuring the conversion of rezasurin (Alamar blue) to resorufin in response to mitochondrial activity. In order to determine the antiviral effect of these compounds EC50 values were determined by measuring the luciferase activity of the cells. Alamar blue solution was removed from the wells and replaced with 100 μl/well of medium along with 100 μl/well of Bright-Glo reagent and incubated at room temperature for 5 minutes before transferring 100 μl/well to a white bottom 96 well plate to read in a luminometer as described in the Bright-Glo Luciferase Assay System protocol (promega).

Sequence of full length NS3/4a (P26663 1027-1657): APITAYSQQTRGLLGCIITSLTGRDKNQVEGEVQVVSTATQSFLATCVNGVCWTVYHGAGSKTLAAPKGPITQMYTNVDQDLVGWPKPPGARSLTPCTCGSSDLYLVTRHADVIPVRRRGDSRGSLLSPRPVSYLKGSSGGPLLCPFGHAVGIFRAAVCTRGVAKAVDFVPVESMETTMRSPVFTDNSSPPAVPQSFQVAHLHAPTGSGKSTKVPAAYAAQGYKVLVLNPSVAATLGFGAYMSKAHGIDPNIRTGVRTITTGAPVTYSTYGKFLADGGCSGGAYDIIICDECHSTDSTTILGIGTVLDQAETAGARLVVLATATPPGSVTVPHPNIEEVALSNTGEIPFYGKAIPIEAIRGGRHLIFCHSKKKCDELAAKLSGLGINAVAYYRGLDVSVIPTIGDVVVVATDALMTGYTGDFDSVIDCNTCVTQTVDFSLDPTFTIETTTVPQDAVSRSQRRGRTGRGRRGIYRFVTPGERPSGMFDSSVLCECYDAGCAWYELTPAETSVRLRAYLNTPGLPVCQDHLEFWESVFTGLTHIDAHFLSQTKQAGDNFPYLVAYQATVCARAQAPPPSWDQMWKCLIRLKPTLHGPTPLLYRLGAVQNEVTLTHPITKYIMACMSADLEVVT

SMILES | IC50 [1] [µM] | pIC50 [1] | pEC50 [2] | CC50 at 72 h [3] [µM]
CC[C@@H](N[C@@H](C)CC(N)=O)c1ccc(Cl)c(C(=O)c2ccc(C(=O)O)cc2)c1F [Example 144, 4-({3-[(1R)-1-{[(2S)-1-Carbamoylpropan-2-yl]amino}propyl]-6-chloro-2-fluorophenyl}carbonyl)-benzoic acid] | 1.2 | 5.30 to 6.00 | < 5.52 | > 3
CC[C@@H](N[C@@H](C)CC(N)=O)c1ccc(Cl)c(C(=O)c2cncc(N)c2)c1F [Example 145, (3S)-3-{[(1R)-1-{3-[(5-aminopyridin-3-yl)carbonyl]-4-chloro-2-fluorophenyl}propyl]-amino}butanamide] | 0.84 |  | 6.00 | > 10
CC[C@@H](N[C@@H](C)CC(N)=O)c1ccc(Cl)c(C(=O)c2ccc(=O)[nH]c2)c1F [Example 147, (3S)-3-{[(1R)-1-{4-chloro-2-fluoro-3-[(6-oxo-1,6-dihydropyridin-3-yl)carbonyl]-phenyl}propyl]amino}-butanamide] | 0.39 |  | 5.68 | > 10
CC[C@@H](N[C@@H](C)CC(N)=O)c1ccc(Cl)c(C(=O)c2ccc(N)cn2)c1F [Example 149, (3S)-3-{[(1R)-1-{3-[(5-aminopyridin-2-yl)carbonyl]-4-chloro-2-fluorophenyl}propyl]amino}-butanamide] | 0.2 |  | 7.41 | > 10
CC[C@@H](N[C@@H](C)CC(N)=O)c1ccc(C)c(C(=O)c2ccccc2)c1F [Example 150, (3S)-3-{[(1R)-1-(3-benzoyl-2-fluoro-4-methylphenyl)propyl]-amino}butanamide] | 0.068 |  | 6.51 | > 10
CC[C@@H](N[C@@H](C)CC(N)=O)c1ccc(OC)c(C(=O)c2ccccc2)c1F [Example 152, (3S)-3-{[(1R)-1-(3-benzoyl-2-fluoro-4-methoxyphenyl)propyl]-amino}butanamide] | 0.051 |  | 7.18 | > 10
C[C@@H](CC(N)=O)N[C@@H](c1ccc(Cl)c(C(=O)c2ccc(N)nc2)c1F)C1CC1 [Example 154, (3S)-3-{[(R)-{3-[(6-aminopyridin-3-yl)carbonyl]-4-chloro-2-fluorophenyl}(cyclo-propyl)methyl]amino}-butanamide] | 0.2 |  | 7.43 | > 10
CC[C@@H](N[C@@H](C)CC(N)=O)c1ccc(F)c(C(=O)c2ccccc2)c1F [Example 157, (3S)-3-{[(1R)-1-(3-benzoyl-2,4-difluorophenyl)propyl]-amino}butanamide] | 0.045 |  | 6.21 | > 10
CC[C@@H](N[C@@H](C)CC(N)=O)c1ccc(Cl)c(C(=O)c2ccc(-n3cc(CO)cn3)nc2)c1F [Example 159, (3S)-3-{[(1R)-1-[4-chloro-2-fluoro-3-({6-[4-(hydroxymethyl)-1H-pyrazol-1-yl]pyridin-3-yl}carbonyl)phenyl]-propyl]amino}-butanamide] | 0.24 |  | 7.00 | > 10
CC[C@@H](NCCC(N)=O)c1ccc(Cl)c(C(=O)c2cccnc2)c1F [Example 162, 3-{[(1R)-1-{4-Chloro-2-fluoro-3-[(pyridin-3-yl)carbonyl]phenyl}propyl]amino}propanamide] | 0.59 | > 6.00 | < 5.52 | > 3
CC[C@@H](NCCC(N)=O)c1ccc(Cl)c(C(=O)c2ccccc2)c1F [Example 167, 3-{[(1R)-1-(3-Benzoyl-4-chloro-2-fluorophenyl)propyl]amino}-propanamide] | 0.098 | > 6.00 | 6.20 | > 3
CC[C@@H](NCC1(C(N)=O)CC1)c1ccc(Cl)c(C(=O)c2cccnc2)c1F [Example 168, 1-({[(1R)-1-{4-Chloro-2-fluoro-3-[(pyridin-3-yl)carbonyl]phenyl}propyl]amino}methyl)-cyclopropane-1-carboxamide] | 0.55 | > 6.00 | < 5.52 | > 3
CC[C@H](NCCO)c1ccc(Cl)c(C(=O)c2ccccc2)c1F [Example 171, 2-{[(1S)-1-(3-benzoyl-4-chloro-2-fluorophenyl)propyl]-amino}ethan-1-ol] | 0.056 | > 6.00 | < 5.52 | > 3
CC[C@@H](NCCO)c1ccc(Cl)c(C(=O)c2ccccc2)c1F [Example 176, 2-{[(1R)-1-(3-benzoyl-4-chloro-2-fluorophenyl)propyl]amino}ethan-1-ol] | 0.29 |  | < 5.52 | > 3
CC[C@H](N[C@@H](C)CO)c1ccc(Cl)c(C(=O)c2ccc(N)nc2)c1F [Example 177, (2S)-2-{[(1S)-1-{3-[(6-aminopyridin-3-yl)carbonyl]-4-chloro-2-fluorophenyl}propyl]amino}propan-1-ol] | 0.18 |  | < 5.52 | > 3
CC[C@H](N[C@H](C)CO)c1ccc(Cl)c(C(=O)c2ccc(N)nc2)c1F [Example 178, (2R)-2-{[(1S)-1-{3-[(6-aminopyridin-3-yl)carbonyl]-4-chloro-2-fluorophenyl}propyl]-amino}propan-1-ol] | 0.088 |  | 6.60 | > 3
CCC(NC(C)(C)CO)c1ccc(Cl)c(C(=O)c2ccccc2)c1F (centres unmarked) [Example 179, 2-{[1-(3-benzoyl-4-chloro-2-fluorophenyl)-propyl]amino}-2-methylpropan-1-ol] | 0.063 |  | 6.52 | > 3
CC[C@@H](NCCC(N)=O)c1ccc(Cl)c(C(=O)c2ccc(N)nc2)c1F [Example 180, 3-{[(1R)-1-{3-[(6-Aminopyridin-3-yl)carbonyl]-4-chloro-2-fluorophenyl}propyl]amino}propanamide] | 0.14 |  | 6.57 | > 3
CC[C@@H](NCCC(N)=O)c1ccc(Cl)c(C(=O)c2cnc(N)cn2)c1F [Example 183, 3-{[(1R)-1-{3-[(5-Aminopyrazin-2-yl)carbonyl]-4-chloro-2-fluorophenyl}propyl]amino}propanamide] | 0.5 |  | 5.66 | > 10
COc1ccc([C@H](N[C@@H](C)CC(N)=O)C2CC2)c(F)c1C(=O)c1cccc(F)c1 [Example 224, (3S)-3-{[(R)-cyclopropyl({2-fluoro-3-[(3-fluorophenyl)carbonyl]-4-methoxyphenyl})methyl]amino}butanamide] | 0.081 |  | 6.72 | > 3
CC[C@@H](CC(N)=O)N[C@H](CC)c1ccc(Cl)c(C(=O)c2ccc(N)nc2)c1F [Example 225, (3S)-3-{[(1R)-1-{3-[(6-aminopyridin-3-yl)carbonyl]-4-chloro-2-fluorophenyl}propyl]amino} pentanamide] | 0.35 |  | 7.55 | > 3
CC[C@@H](N[C@@H](C)CC(N)=O)c1ccc(Cl)c(C(=O)c2cccc(O)c2)c1F [Example 227, (3S)-3-{[(1R)-1-{4-chloro-2-fluoro-3-[(3-hydroxyphenyl)carbonyl]phenyl}propyl]amino} butanamide] | 0.15 | > 6.00 | 7.96 | > 3
CC[C@@H](N[C@@H](C)CC(N)=O)c1ccc(Cl)c(C(=O)c2ccc3c(n2)NC(=O)CO3)c1F [Example 229, (3S)-3-{[(1R)-1-[4-chloro-2-fluoro-3-({3-oxo-2H,3H,4H-pyrido[3,2-b][1,4]oxazin-6-yl}carbonyl)phenyl]propyl]amino}butanamide] | 1.1 | 5.30 to 6.00 | 5.72 | > 3
CC[C@@H](N[C@@H](C)CC(N)=O)c1ccc(Cl)c(C(=O)c2ccc(O)cc2)c1F [Example 230, (3S)-3-{[(1R)-1-{4-chloro-2-fluoro-3-[(4-hydroxyphenyl)carbonyl]phenyl}propyl]amino} butanamide] | 0.55 | > 6.00 | 7.43 | > 3
